# Literature values in US4127521A, “Novel octacosapeptides, intermediates therefor and pharmaceutical compositions and methods employing said octacosapeptides” (priority 1977, dated 1978).
# What was measured:
# [1] = injected directly into the brain of the rat
# [2] = tested on: brain opiate receptor sites
substance,measurement,setting,value
H-Tyr-Gly-Gly-Phe-Met-OH [methionine enkephalin],analgesic activity,[1],weak analgesic agent of short duration
same,binding to partially purified brain opiate receptor sites,[2],binds stereo-specifically
